# Test results: patent US20200329698A1, “COMPOSITIONS FOR ORGAN GRAFT PRESERVATION AND METHODS OF USE” (Nobilis Therapeutics, Inc., priority 2019, published 2020)
# Legend:
# [1] = system: Lewis rat lung grafts extracted after cardiac death
# Procedure: Inbred adult male Lewis rats (LEW, RT1^1) weighing 225-250 g were purchased from Harlan, UK and bred in temperature- and humidity-controlled cages in a specific pathogen-free facility at the Chelsea-Westminster Campus, Imperial College London. All animal procedures were carried out in accordance with the United Kingdom Animals (Scientific Procedures) Act of 1986. For cardiac arrest model (DCD donor) in anaesthetized rats, anticoagulation was accomplished by injecting 250 U Heparin in 1 ml saline via the penile vein. Five minutes after heparinization, a laparotomy was performed through a midline incision. A thoracotomy was performed followed by induction of cardiac arrest by external compression of the heart for 5 min. After induction of cardiac arrest, the aorta was closed using a vascular clamp rostral from the heart. The thoracotomy wound was covered with gauze and kept moist with 0.9% NaCl. After 40 minutes in DCD donors, the entire graft, lung or kidney, in the donor was isolated and excised. Lung grafts were flushed through the main pulmonary artery and stored at 4° C. for 16 hours with either control UW solution or UW with Dex (0.1 nM) solution. Lung or kidney grafts were fixed in 4% parafamydehyde and paraffin. Sections of 5-μm thickness were taken from the kidney specimens and haematoxylin & eosin (H&E) staining was carried out. Lung cell morphology in each graft (10 fields in the cortex at ×20 magnifications) was evaluated by an observer blinded to the treatment using an OLYMPUS™ (Watford, UK) BX4 microscope under constant exposure level. The score for each field was calculated from the sum score of 10 areas chosen at a random. For the lung sections, the injury was categorised into Grade 0: normal appearance, negligible damage; Grade 1: mild moderate interstitial congestion and neutrophil leukocyte infiltrations; Grade 2: perivascular oedema formation, partial destruction of pulmonary architecture and moderate cell infiltration; Grade 3: moderate lung alveolar damage and intensive cell infiltration; Grade 4: severe cell infiltration and severe destruction of the pulmonary architecture. For in vivo fluorescence or DAB staining, 25-μm frozen lung sections were incubated with rabbit anti-Rip1 (1:200, SANTA CRUZ BIOTECHNOLOGY®), rabbit anti-Rip3 (1:200, SANTA CRUZ BIOTECHNOLOGY®), mouse anti-HMGB-1 (1:200, Abcam), Goat anti-TLR-4 (1:200, SANTA CRUZ BIOTECHNOLOGY®), rabbit anti-Nrf-2 (1:200, SANTA CRUZ BIOTECHNOLOGY®), mouse anti-SOD-1 (1:200, Abcam), mouse anti-NQO-1 (1:200 Abcam), rabbit anti-3-nitrotyrosine (1:200, Abcam) and rabbit anti-4-hydroxynonenal (1:200, Abcam) at 4° C. overnight. After washing with PBST, the slides were incubated with fluorochrome-conjugated secondary antibodies (MILLIPORE™, UK). For double-labelled immunofluorescence, lung samples were incubated with the first primary antibody overnight, followed by the first secondary antibody, and then the second primary antibody and the second secondary antibody. The slides were counterstained with nuclear dye DAPI and mounted with […]® Mounting Medium (Vector lab, USA). Sections were examined using an OLYMPUS™ (Watford, UK) BX4 microscope under constant exposure level. Immunofluorescence was quantified using ImageJ (National Institutes of Health, Maryland, USA) and the background was subtracted. Ten representative regions per section (in vivo) or field (in vitro) were randomly selected by an assessor blinded to the treatment groups. Values were then calculated as percentages of the mean value for naïve controls and expressed as percentage fluorescence intensity. Lung alveolar cell death was detected by the in situ TUNEL assay (MILLIPORE™) according to the manufacturer's instructions. TUNEL nuclei were visualized by green FITC fluorescence. Tumor necrosis factor-α (TNF-α) in the culture medium were detected by ELISA (Human TNF-α ELISA kits, INVITROGEN®, UK). Rat lung tissue and serum TNF-α were measured by ELISA (Rat TNF-α ELISA kits, INVITROGEN®, UK). […]
# [2] = system: ex vivo renal grafts from brain death or cardiac arrest donors; experiment: Rat hypothermic machine perfusion model; details: exposure of ex vivo grafts prior to engraftment
# [3] = system: JAK/STAT signaling pathway; details: cited from earlier work
# [4] = Dex 0.1 nM in UW at 4° C., CI 16 hr, vs vehicle
# [5] = Dex-saturated UW, CI 16 h, p<0.001
# [6] = Dex-saturated UW, CI 16 h, p<0.05
smiles,measurement,setting,value
Cc1cccc([C@H](C)c2cnc[nH]2)c1C [Dexmedetomidine],HMGB-1 release,[1]; [4],reduction
same,TLR-4 activation (fluorescent intensity),[1]; [4],reduction
same,cell death (TUNEL staining),[1]; [4],reduced cell death
same,concentration of HMGB-1 in lung graft tissue (ELISA),[1]; [4],significantly reduced
same,concentration of IL-1β in lung graft tissue (ELISA),[1]; [4],significantly reduced
same,concentration of TNF-α in lung graft tissue (ELISA),[1]; [4],significantly reduced
same,expression of necroptosis marker RIP1 (fluorescent intensity),[1]; [4],significantly reduced
same,expression of necroptosis marker RIPS (RIPK3 fluorescent intensity),[1]; [4],significantly reduced
same,"lung morphology (H&E, lung injury scoring)",[1]; [4],marked improvement in morphology
same,expression of 3-nitrotyrosine (fluorescent intensity),"[1]; Dex-saturated UW, CI 16 h, vs control group, p<0.001",significant reduction
same,expression of 4-hydroxynonenal (fluorescent intensity),"[1]; Dex-saturated UW, CI 16 h, vs control group, p<0.05",significant reduction
same,expression of Nrf-2 (fluorescent intensity),[1]; [5],significant increase
same,expression of SOD-1 (fluorescent intensity),[1]; [5],significant increase
same,lung tissue GSH/GSSG ratio,[1]; [5],significant increase
same,lung tissue GSSG level,"[1]; Dex-saturated UW, CI 16 h, p<0.01",significant decrease
same,expression of NQO-1 (fluorescent intensity),[1]; [6],significant increase
same,lung tissue GSH level,[1]; [6],significant increase
same,"organ graft injury, histologically and functionally",[2],prevent organ graft injury
same,level of p-JAK2 and its downstream effectors p-STAT1 and STATS,"[3]; mice, warm ischemia-reperfusion injury",significant reduced level
same,long-term renal function,"[3]; mouse, in vivo",long-term functional renoprotection
same,survival,"[3]; mouse, in vivo",increased survival
same,tubular architecture and function following renal ischemia,[3]; pre- or post-treatment,improved tubular architecture and function
